Source: ChEMBL document CHEMBL1201862, “PubChem BioAssay data set” (2004)
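Assay format: 96-well plates, 48-hour exposure. GI50 is the concentration that inhibits growth by half.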 Active and inactive are the calls of the source. No stated cut-off is given here; in the data, active = GI50 up to about 1.1 µM and inactive = higher.

Columns and labels:
Test in all cases: NCI tumour cell line growth inhibition, 48 h
SR = system: SR
OVCAR-5 = system: OVCAR-5
HCT-15 = system: HCT-15
NCI-H226 = system: NCI-H226
OVCAR-3 = system: OVCAR-3
MCF7 = system: MCF7
T47D = system: T47D
SF-295 = system: SF-295
A498 = system: A498
COLO 205 = system: COLO 205
SK-OV-3 = system: SK-OV-3
HOP-62 = system: HOP-62
K562 = system: K562
MDA-MB-435 = system: MDA-MB-435
CCRF-CEM = system: CCRF-CEM
MDA-N = system: MDA-N
ACHN = system: ACHN
KM12 = system: KM12
PC-3 = system: PC-3
NCI/ADR-RES = system: NCI/ADR-RES
EKVX = system: EKVX
SN12C = system: SN12C
MOLT-4 = system: MOLT-4
HCT-116 = system: HCT-116
M14 = system: M14
UO-31 = system: UO-31
OVCAR-8 = system: OVCAR-8
MDA-MB-231 = system: MDA-MB-231
NCI-H460 = system: NCI-H460
UACC-62 = system: UACC-62
SK-MEL-28 = system: SK-MEL-28
Malme-3M = system: Malme-3M
RXF 393 = system: RXF 393
SF-268 = system: SF-268
LOX IMVI = system: LOX IMVI
HCC 2998 = system: HCC 2998
A549 = system: A549
CAKI-1 = system: CAKI-1
SNB-75 = system: SNB-75
SK-MEL-5 = system: SK-MEL-5
SNB-19 = system: SNB-19
SW-620 = system: SW-620
U-251 = system: U-251
NCI-H23 = system: NCI-H23
OVCAR-4 = system: OVCAR-4
786-0 = system: 786-0
UACC-257 = system: UACC-257
SK-MEL-2 = system: SK-MEL-2
TK-10 = system: TK-10
IGROV-1 = system: IGROV-1
NCI-H522 = system: NCI-H522
SF-539 = system: SF-539
HT-29 = system: HT-29
DU-145 = system: DU-145
RPMI-8226 = system: RPMI-8226
Hs-578T = system: Hs-578T
HL-60 = system: HL-60

For `O=C1/C(=N/c2ccccc2)Oc2cc(O)ccc21`, the GI50 (SR) was > 100 µM (inactive), the GI50 (OVCAR-5) was > 100 µM (inactive) and the GI50 (HCT-15) was over 100 µM. The GI50 (NCI-H226) was > 100 µM (inactive), the GI50 (OVCAR-3) was > 100 µM (inactive) and the GI50 (MCF7) was 56.4 µM (inactive). The GI50 (T47D) was > 100 µM (inactive), the GI50 (SF-295) was > 100 µM (inactive) and the GI50 (A498) was > 100 µM (inactive). For the same compound, the GI50 (COLO 205) was > 100 µM (inactive), the GI50 (SK-OV-3) was > 100 µM (inactive) and the GI50 (HOP-62) was > 100 µM (inactive). For the same compound, the GI50 (K562) was > 100 µM (inactive), the GI50 (MDA-MB-435) was > 100 µM (inactive) and the GI50 (CCRF-CEM) was > 100 µM (inactive). The GI50 (MDA-N) was > 100 µM (inactive), the GI50 (ACHN) was > 100 µM (inactive) and the GI50 (KM12) was > 100 µM (inactive). The GI50 (PC-3) was > 100 µM (inactive), the GI50 (NCI/ADR-RES) was > 100 µM (inactive) and the GI50 (EKVX) was > 100 µM (inactive). The GI50 (SN12C) was > 100 µM (inactive), the GI50 (MOLT-4) was > 100 µM (inactive) and the GI50 (HCT-116) was > 100 µM (inactive). For the same compound, the GI50 (M14) was > 100 µM (inactive), the GI50 (UO-31) was > 100 µM (inactive) and the GI50 (OVCAR-8) was > 100 µM (inactive). The GI50 (MDA-MB-231) was > 100 µM (inactive), the GI50 (NCI-H460) was > 100 µM (inactive) and the GI50 (UACC-62) was > 100 µM (inactive). The GI50 (SK-MEL-28) was > 100 µM (inactive), the GI50 (Malme-3M) was > 100 µM (inactive) and the GI50 (RXF 393) was > 100 µM (inactive). For the same compound, the GI50 (SF-268) was > 100 µM (inactive), the GI50 (LOX IMVI) was > 100 µM (inactive) and the GI50 (HCC 2998) was > 100 µM (inactive). For the same compound, the GI50 (A549) was > 100 µM (inactive), the GI50 (CAKI-1) was > 100 µM (inactive) and the GI50 (SNB-75) was > 100 µM (inactive). The GI50 (SK-MEL-5) was > 100 µM (inactive), the GI50 (SNB-19) was > 100 µM (inactive) and the GI50 (SW-620) was > 100 µM (inactive). For the same compound, the GI50 (U-251) was > 100 µM (inactive), the GI50 (NCI-H23) was > 100 µM (inactive) and the GI50 (OVCAR-4) was > 100 µM (inactive). The GI50 (786-0) was > 100 µM (inactive), the GI50 (UACC-257) was > 100 µM (inactive) and the GI50 (SK-MEL-2) was > 100 µM (inactive). The GI50 (TK-10) was > 100 µM (inactive), the GI50 (IGROV-1) was > 100 µM (inactive) and the GI50 (NCI-H522) was > 100 µM (inactive). For the same compound, the GI50 (SF-539) was > 100 µM (inactive), the GI50 (HT-29) was > 100 µM (inactive) and the GI50 (DU-145) was > 100 µM (inactive).

With `O=C(CC(C(=O)c1cccs1)c1cccs1)c1ccccc1Cl` (stereo not drawn) the GI50 (SR) was 39.5 µM (inactive), the GI50 (OVCAR-5) was > 100 µM (inactive) and the GI50 (RPMI-8226) was 50.1 µM (inactive). The GI50 (HCT-15) was 94.8 µM, the GI50 (NCI-H226) was > 100 µM (inactive) and the GI50 (MCF7) was > 100 µM (inactive). The GI50 (T47D) was 52 µM (inactive), the GI50 (SF-295) was > 100 µM (inactive) and the GI50 (A498) was > 100 µM (inactive). The GI50 (COLO 205) was 54 µM (inactive), the GI50 (SK-OV-3) was > 100 µM (inactive) and the GI50 (HOP-62) was > 100 µM (inactive). For the same compound, the GI50 (K562) was 98.4 µM (inactive), the GI50 (MDA-MB-435) was > 100 µM (inactive) and the GI50 (CCRF-CEM) was > 100 µM (inactive). The GI50 (MDA-N) was 97.7 µM (inactive), the GI50 (ACHN) was > 100 µM (inactive) and the GI50 (KM12) was 93.1 µM (inactive). For the same compound, the GI50 (PC-3) was 72.9 µM (inactive), the GI50 (NCI/ADR-RES) was 33.5 µM (inactive) and the GI50 (EKVX) was 49.8 µM (inactive). For the same compound, the GI50 (SN12C) was > 100 µM (inactive), the GI50 (MOLT-4) was 46.1 µM (inactive) and the GI50 (HCT-116) was 52.1 µM (inactive). For the same compound, the GI50 (M14) was > 100 µM (inactive), the GI50 (UO-31) was 29.7 µM (inactive) and the GI50 (OVCAR-8) was > 100 µM (inactive). For the same compound, the GI50 (MDA-MB-231) was > 100 µM (inactive), the GI50 (NCI-H460) was 77.1 µM (inactive) and the GI50 (UACC-62) was > 100 µM (inactive). For the same compound, the GI50 (SK-MEL-28) was 81.7 µM (inactive), the GI50 (Malme-3M) was 61.8 µM (inactive) and the GI50 (SF-268) was > 100 µM (inactive). For the same compound, the GI50 (LOX IMVI) was > 100 µM (inactive), the GI50 (HCC 2998) was > 100 µM (inactive) and the GI50 (A549) was > 100 µM (inactive). The GI50 (CAKI-1) was > 100 µM (inactive), the GI50 (SNB-75) was > 100 µM (inactive) and the GI50 (SK-MEL-5) was > 100 µM (inactive). The GI50 (SNB-19) was > 100 µM (inactive), the GI50 (SW-620) was > 100 µM (inactive) and the GI50 (U-251) was > 100 µM (inactive). For the same compound, the GI50 (NCI-H23) was 33 µM (inactive), the GI50 (Hs-578T) was 75.3 µM (inactive) and the GI50 (OVCAR-4) was > 100 µM (inactive). For the same compound, the GI50 (786-0) was > 100 µM (inactive), the GI50 (UACC-257) was 74.3 µM (inactive) and the GI50 (SK-MEL-2) was > 100 µM (inactive). For the same compound, the GI50 (TK-10) was > 100 µM (inactive), the GI50 (IGROV-1) was > 100 µM (inactive) and the GI50 (HL-60) was 76.4 µM (inactive). The GI50 (SF-539) was > 100 µM (inactive), the GI50 (HT-29) was 76.6 µM (inactive) and the GI50 (DU-145) was > 100 µM (inactive).
